Experimental data published in PubChem BioAssay (NCI).
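Dose response: 5 concentrations. Exposure: 48 h. Format: 96-well plates. Endpoint: linear interpolation; highest concentration if not reached. GI50 is the concentration that inhibits growth by half. TGI marks complete inhibition of growth.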

How the values were obtained:
Assay in all cases: DTP human tumour cell line panel, 48 h
786-0 renal = test system: 786-0 renal
A549 NSCLC = test system: A549 NSCLC
ACHN renal = test system: ACHN renal
BT-549 breast = test system: BT-549 breast
CAKI-1 renal = test system: CAKI-1 renal
CCRF-CEM leukemia = test system: CCRF-CEM leukemia
COLO 205 colon = test system: COLO 205 colon
DU-145 prostate = test system: DU-145 prostate
EKVX NSCLC = test system: EKVX NSCLC
HCC-2998 colon = test system: HCC-2998 colon
HCT-116 colon = test system: HCT-116 colon
HCT-15 colon = test system: HCT-15 colon
HOP-62 NSCLC = test system: HOP-62 NSCLC
HOP-92 NSCLC = test system: HOP-92 NSCLC
HS 578T breast = test system: HS 578T breast
HT29 colon = test system: HT29 colon
IGROV1 ovarian = test system: IGROV1 ovarian
K-562 leukemia = test system: K-562 leukemia
KM12 colon = test system: KM12 colon
LOX IMVI melanoma = test system: LOX IMVI melanoma
M14 melanoma = test system: M14 melanoma
MCF7 breast = test system: MCF7 breast
MDA-MB-231 breast = test system: MDA-MB-231 breast
MDA-MB-435 = test system: MDA-MB-435
MOLT-4 leukemia = test system: MOLT-4 leukemia
NCI-H226 lung = test system: NCI-H226 lung
NCI-H23 lung = test system: NCI-H23 lung
NCI-H460 lung = test system: NCI-H460 lung
NCI-H522 lung = test system: NCI-H522 lung
NCI/ADR-RES ovarian = test system: NCI/ADR-RES ovarian
OVCAR-3 ovarian = test system: OVCAR-3 ovarian
OVCAR-4 ovarian = test system: OVCAR-4 ovarian
OVCAR-5 ovarian = test system: OVCAR-5 ovarian
OVCAR-8 ovarian = test system: OVCAR-8 ovarian
PC-3 prostate = test system: PC-3 prostate
RPMI-8226 leukemia = test system: RPMI-8226 leukemia
RXF 393 renal = test system: RXF 393 renal
SF-268 CNS = test system: SF-268 CNS
SF-295 CNS = test system: SF-295 CNS
SF-539 CNS = test system: SF-539 CNS
SK-MEL-2 melanoma = test system: SK-MEL-2 melanoma
SK-MEL-28 melanoma = test system: SK-MEL-28 melanoma
SK-MEL-5 melanoma = test system: SK-MEL-5 melanoma
SK-OV-3 ovarian = test system: SK-OV-3 ovarian
SN12C renal = test system: SN12C renal
SNB-19 CNS = test system: SNB-19 CNS
SNB-75 CNS = test system: SNB-75 CNS
SW-620 colon = test system: SW-620 colon
T-47D breast = test system: T-47D breast
TK-10 renal = test system: TK-10 renal
U251 CNS = test system: U251 CNS
UACC-257 melanoma = test system: UACC-257 melanoma
UACC-62 melanoma = test system: UACC-62 melanoma
UO-31 renal = test system: UO-31 renal

With Cc1ccc(Cl)cc1Nc1nc(C(F)(F)F)ccc1C(N)=O the GI50 (786-0 renal) was 3.28 µM, the TGI (786-0 renal) was 13.6 µM and the GI50 (A549 NSCLC) was 12.8 µM. The TGI (A549 NSCLC) was > 100 µM, the GI50 (ACHN renal) was 3.67 µM and the TGI (ACHN renal) was 15.3 µM. The GI50 (BT-549 breast) was 4.53 µM, the TGI (BT-549 breast) was 28.6 µM and the GI50 (CAKI-1 renal) was 3.5 µM. For the same compound, the TGI (CAKI-1 renal) was 23.9 µM, the GI50 (CCRF-CEM leukemia) was 15.1 µM and the TGI (CCRF-CEM leukemia) was 36.2 µM. It also gave a GI50 (COLO 205 colon) of 5.48 µM, a TGI (COLO 205 colon) of 71.2 µM and a GI50 (DU-145 prostate) of 9.77 µM. The TGI (DU-145 prostate) was > 100 µM, the GI50 (EKVX NSCLC) was 4.16 µM and the TGI (EKVX NSCLC) was 46.8 µM. For the same compound, the GI50 (HCC-2998 colon) was 6.1 µM, the TGI (HCC-2998 colon) was 20.3 µM and the GI50 (HCT-116 colon) was 5.91 µM. The TGI (HCT-116 colon) was 22.8 µM, the GI50 (HCT-15 colon) was 5.73 µM and the TGI (HCT-15 colon) was > 100 µM. It also gave a GI50 (HOP-62 NSCLC) of 3.5 µM, a TGI (HOP-62 NSCLC) of 17.4 µM and a GI50 (HOP-92 NSCLC) of 15.1 µM. For the same compound, the TGI (HOP-92 NSCLC) was 40.7 µM, the GI50 (HS 578T breast) was 0.809 µM and the TGI (HS 578T breast) was 3.94 µM. The GI50 (HT29 colon) was 4.02 µM, the TGI (HT29 colon) was > 100 µM and the GI50 (IGROV1 ovarian) was 5.19 µM. The TGI (IGROV1 ovarian) was 59.2 µM, the GI50 (K-562 leukemia) was 21.3 µM and the TGI (K-562 leukemia) was 46.1 µM. For the same compound, the GI50 (KM12 colon) was 5.09 µM, the TGI (KM12 colon) was 47.8 µM and the GI50 (LOX IMVI melanoma) was 2.23 µM. The TGI (LOX IMVI melanoma) was 11.4 µM, the GI50 (M14 melanoma) was 10.7 µM and the TGI (M14 melanoma) was 35.7 µM. For the same compound, the GI50 (MCF7 breast) was 3.92 µM, the TGI (MCF7 breast) was > 100 µM and the GI50 (MDA-MB-231 breast) was 2.47 µM. It also gave a TGI (MDA-MB-231 breast) of 11.8 µM, a GI50 (MDA-MB-435) of 12 µM and a TGI (MDA-MB-435) of 60.4 µM. It also gave a GI50 (MOLT-4 leukemia) of 7.54 µM, a TGI (MOLT-4 leukemia) of 48.4 µM and a GI50 (NCI-H226 lung) of 1.45 µM. For the same compound, the TGI (NCI-H226 lung) was 9.81 µM, the GI50 (NCI-H23 lung) was 2.76 µM and the TGI (NCI-H23 lung) was 15.9 µM. For the same compound, the GI50 (NCI-H460 lung) was 3.28 µM, the TGI (NCI-H460 lung) was > 100 µM and the GI50 (NCI-H522 lung) was 4.63 µM. For the same compound, the TGI (NCI-H522 lung) was 60.7 µM, the GI50 (NCI/ADR-RES ovarian) was 5.7 µM and the TGI (NCI/ADR-RES ovarian) was 31.2 µM. It also gave a GI50 (OVCAR-3 ovarian) of 13.2 µM, a TGI (OVCAR-3 ovarian) of 55.7 µM and a GI50 (OVCAR-4 ovarian) of 22.3 µM. For the same compound, the TGI (OVCAR-4 ovarian) was > 100 µM, the GI50 (OVCAR-5 ovarian) was 8.48 µM and the TGI (OVCAR-5 ovarian) was 49.4 µM. The GI50 (OVCAR-8 ovarian) was 29.4 µM, the TGI (OVCAR-8 ovarian) was > 100 µM and the GI50 (PC-3 prostate) was 14 µM. It also gave a TGI (PC-3 prostate) of 71.1 µM, a GI50 (RPMI-8226 leukemia) of 18.6 µM and a TGI (RPMI-8226 leukemia) of 46.8 µM. For the same compound, the GI50 (RXF 393 renal) was 10.5 µM, the TGI (RXF 393 renal) was 34 µM and the GI50 (SF-268 CNS) was 6.46 µM. For the same compound, the TGI (SF-268 CNS) was > 100 µM, the GI50 (SF-295 CNS) was 11.9 µM and the TGI (SF-295 CNS) was 41.2 µM. For the same compound, the GI50 (SF-539 CNS) was 4.46 µM, the TGI (SF-539 CNS) was 28 µM and the GI50 (SK-MEL-2 melanoma) was 20.4 µM. The TGI (SK-MEL-2 melanoma) was > 100 µM, the GI50 (SK-MEL-28 melanoma) was 43.8 µM and the TGI (SK-MEL-28 melanoma) was > 100 µM. It also gave a GI50 (SK-MEL-5 melanoma) of 1.92 µM, a TGI (SK-MEL-5 melanoma) of 6.6 µM and a GI50 (SK-OV-3 ovarian) of 16.9 µM. The TGI (SK-OV-3 ovarian) was > 100 µM, the GI50 (SN12C renal) was 5.5 µM and the TGI (SN12C renal) was 91.8 µM. For the same compound, the GI50 (SNB-19 CNS) was 11.3 µM, the TGI (SNB-19 CNS) was > 100 µM and the GI50 (SNB-75 CNS) was 8.65 µM. The TGI (SNB-75 CNS) was > 100 µM, the GI50 (SW-620 colon) was 6.98 µM and the TGI (SW-620 colon) was > 100 µM. The GI50 (T-47D breast) was 3.54 µM, the TGI (T-47D breast) was > 100 µM and the GI50 (TK-10 renal) was 4.31 µM. For the same compound, the TGI (TK-10 renal) was 18.5 µM, the GI50 (U251 CNS) was 4.09 µM and the TGI (U251 CNS) was 26.1 µM. It also gave a GI50 (UACC-257 melanoma) of 24.8 µM, a TGI (UACC-257 melanoma) of 83.5 µM and a GI50 (UACC-62 melanoma) of 6.56 µM. For the same compound, the TGI (UACC-62 melanoma) was 26.6 µM, the GI50 (UO-31 renal) was 5.37 µM and the TGI (UO-31 renal) was > 100 µM.
